In data set [1] the test system is HOS-TE85. The data set can be described thus: Cytotoxicity against human MNNG cells assessed as cell growth inhibition at 1 uM measured after 72 hrs by MTT assay relative to control. The format is functional. As to conditions: read-out: GI. A general note: Tetrazolium dyes change colour on reduction, which living cells bring about.
Data set [2] can be described thus: Cytotoxicity against HUVEC assessed as cell growth inhibition measured after 72 hrs by MTT assay. In kind it is toxicity, cell-based. To be noted: human, HUVEC cells.
Data set [3] deals with HOS-TE85. The data set can be described thus: Cytotoxicity against human MNNG cells assessed as cell growth inhibition at 10 uM measured after 72 hrs by MTT assay relative to control. In kind it is functional. As to conditions: read-out: GI.
The nature of data set [4]: Selectivity index, ratio of IC50 for cytotoxicity against HUVEC to IC50 for cytotoxicity against human MNNG cells. The format is toxicity, cell-based. To be noted: HUVEC and human MNNG cells, read-out: Ratio IC50.
The test system of data set [5] is HOS-TE85. The data set can be described thus: Cytotoxicity against human MNNG cells assessed as cell growth inhibition measured after 72 hrs by MTT assay. In kind it is functional, cell-based. As to conditions: HOS-TE85, 72 h.
Data set [6] is described as follows: Toxicity in human MNNG cell xenografted Balb/c mouse assessed as reduction in AST level at 30 mg/kg, iv administered every 2 days for 3 weeks and measured post last dose. The format is organism-based. As to conditions: in vivo, 504 h, time 21 day. A general note: Xenograft models place foreign cells or tissue in a host animal.
Data set [7] has as its system HOS-TE85. The data set can be described thus: Antitumor activity against human MNNG cells xenografted in Balb/c mouse assessed as tumor growth inhibition at 30 mg/kg, iv administered every 2 days for 3 weeks and measured daily during compound dosing relative to control. In kind it is functional. As to conditions: HOS-TE85, 504 h, time 21 day, read-out: TGI.
Data set [8] can be described thus: Toxicity in human MNNG cell xenografted Balb/c mouse assessed as reduction in Cr level at 30 mg/kg, iv administered every 2 days for 3 weeks and measured post last dose. As to conditions: in vivo, 504 h, time 21 day. The format is organism-based.
Data set [9] in a line: Toxicity in human MNNG cell xenografted Balb/c mouse assessed as body weight loss at 30 mg/kg, iv administered every 2 days for 3 weeks and measured every other day during compound dosing. The format is organism-based. As to conditions: in vivo, 504 h, time 21 day.

Data on two molecules can be found in ChEMBL document CHEMBL6109124, “Identification of effective anti-osteosarcoma agents via screening of an in-house NQO1-targeted compound library” (Bioorg Med Chem, 2025).

Take `Cc1ccc2c(c1)-c1nc(C#N)c(C#N)nc1C2=O`: the inhibition of growth at 1 µM in the data set with HOS-TE85 [1] was found to be 35.4%. The IC50 at 72 h in [2] came out at 3.85 µM. In addition, the inhibition of growth at 10 µM in the data set on HOS-TE85 [3] is 99.9%. For the same molecule, the selectivity ratio in data set [4] came to 2.08. Moreover, the half-maximal inhibitory concentration (IC50) in the data set on HOS-TE85 [5] worked out at 1850 nM.

As for `CC1(C)CCC2=C(O1)c1ccccc1C(=O)C2=O` [LAPACHONE], the Activity result in data set [6] is reported as “Toxic”; in data set [8], “Toxic”; in data set [9], “Non-toxic”. The inhibition in vivo at 30 mg/kg with HOS-TE85 [7] stood at 58.9%. For the same molecule, in data set [2], the IC50 at 72 h turned out to be 12.5 µM. In data set [4], the selectivity ratio is 5.16. The IC50 with HOS-TE85 [5] amounted to 2420 nM.

As usually defined, the IC50 is the point on the concentration scale where inhibition reaches its midpoint.
